# In patent US12201610B2, “Compositions comprising aticaprant” (Janssen Pharmaceuticals, Inc., priority 2022, dated 2025):
# Read-outs that look alike come from different tables or passages of the source.
# How the values were obtained:
# [1] = Phase 1 PK Part 1: relative bioavailability, dose proportionality, food effect of unmilled API tablet; assay type: in vivo, human; details: for Tmax: median
# Procedure: This is a Phase 1, open-label, single dose, multicenter, 4-part study in healthy adult participants.
# Potential participants will be screened from Day −28 to Day −2 to determine participants' eligibility for study participation. For Part 1, qualified participants will be admitted on Day −1 of each treatment period and will remain in-house for the total duration of the treatment (Day −1 until Day 5, with single-dose treatment on Day 1 and 96 hours of PK), whereas for Part 2, PK sampling will be done up to 120 hours (Day 6). Each dosed participant will have a safety follow-up on Day 10 to Day 14 after last dose of the study intervention.
# The Part 1 of the study involves determination of relative bioavailability for tablet (Formulation Concept 1, i.e., unmilled aticaprant formulation, see Table 10) and capsule formulations (see Example 6, study design, for description of capsule formulation) and dose proportionality and food effect for tablet formulation (Formulation Concept 1) in healthy adult participants (FIG. 25). Part 1 will consist of Subpart 1A and Subpart 1B consisting of a total of 4 periods. […] Participants will be assigned to 1 of 6 treatment sequences (Table 51) and will be administered the 3 treatments in a 3-way crossover. The same 24 participants who complete Subpart 1A will be enrolled in Subpart 1B. Subpart 1B consists of a fourth period to evaluate the food effect of a single dose of 10 mg aticaprant administered as 1×10 mg oral tablet (Formulation Concept 1) under fed conditions (Treatment D; Table 50 and Table 52). A preliminary PK analysis will be conducted at the end of the food effect part (Subpart 1B) for all the periods from Part 1 and will include the food effect data.
# Secondary Objectives: • To assess the safety and tolerability of oral doses of aticaprant in healthy adult participants. Part 2
# For each individual participant, there will be a washout period of at least 7 days for Part 1 and at least 8 days for Part 2 between subsequent intakes of the study intervention. Day 1 of a treatment period (day of study intervention intake) is the first day of the washout period (also in between the study parts, if applicable).
# Participants will be fasting in Part 1A and Part 2A. Participants will have been fed in Parts 1B and 2B. For a fasted condition, participants will fast (nothing to cat or drink except noncarbonated water) overnight for at least 10 hours before and until 4 hours after study intervention administration during each fasted treatment period. Approximately, 4 hours post-dose and after the 4-hour PK sampling, a standard lunch will be served at the study-site. Intake of water is allowed until 2 hours before the intake of the study intervention. Thereafter, water intake is only allowed for study intervention intake and for breakfast, if applicable. Drinking of water is allowed ad libitum from approximately 2 hours after dosing. For a fed condition, participants will consume, after an overnight fast (at least 10 hours), a standardized high-fat breakfast within a 20-minute period. […] Study intervention will be administered approximately 30 minutes after the start of the breakfast.
# In Parts 1 and 2, plasma concentrations will be determined for aticaprant. Blood samples for determination of plasma concentrations of aticaprant will be collected predose and at the postdose time points starting on Day 1 as indicated in the Tables 57-58.
# The following plasma PK parameters of aticaprant will be determined. A noncompartmental model with extravascular input will be used for the pharmacokinetic analysis.
# Based on the individual concentration-time data, using the actual sampling times, the following PK parameters will be derived for aticaprant: […]
# [2] = tested on: subjects with MDD; assay: ASEX sexual functioning score (Example 6); assay type: in vivo, human
# Source text: As used herein, the term “decrease in sexual functioning” refers to reducing or lessening of one or more components of the human sex drive, i.e., sexual functioning. In some embodiments, the sexual functioning comprises one or more of sexual drive, sexual arousal, vaginal lubrication, erection, orgasm achievement, or orgasm satisfaction. In other embodiments, the sexual functioning comprises sexual drive. In further embodiments, the sexual functioning comprises vaginal lubrication satisfaction. In further embodiments, the sexual functioning comprises orgasm achievement. In yet other embodiments, the sexual functioning comprises orgasm satisfaction. Desirably, the patient's sexual functioning is assessed at the time of initial administration of aticaprant. Thus, the patient's sexual functioning while taking aticaprant can be compared to the patient's sexual functioning before administration of aticaprant. Sexual functioning may be assessed by using standard scales and techniques such as the Arizona Sexual Experience Scale (ASEX). The ASEX is used to investigate whether aticaprant has a further positive or negative effect on sexual function. The ASEX is 5 item rating scale administered to patients that quantifies sexual drive, sexual arousal, vaginal lubrication or penile erection, ability to reach orgasm and satisfaction. Scores range from 5 to 30, and two different versions of the scale are available (males and females).
# Patients had their sexual functioning measured using a standard, well accepted rating scale: ASEX. See, Table 48.
# [3] = Dose proportionality: C (Test, 5 mg tablet normalized to 10 mg) vs B (Reference, 10 mg tablet), fasting
# [4] = Food effect: Treatment D (high-fat breakfast, Test)/Treatment B (fasting, Reference), 10 mg Formulation Concept 1
# [5] = Relative BA: Treatment B (10 mg tablet, Test)/Treatment A (2 × 5 mg capsule, Reference), fasting
# [6] = Treatment A: 2 × 5 mg oral capsule, fasting, mean
# [7] = Treatment B: 1 × 10 mg Formulation Concept 1 (unmilled API tablet), fasting, mean
# [8] = Treatment C (1 × 5 mg Formulation Concept 1, fasting), 5 mg dose normalized to 10 mg, mean (SD)
# [9] = Treatment C: 1 × 5 mg Formulation Concept 1 (unmilled API tablet), fasting, mean
# [10] = Treatment D: 1 × 10 mg Formulation Concept 1 (unmilled API tablet), after high-fat breakfast, mean
# [11] = human, plasma, oral, 5 mg, Treatment C: 1 × 5 mg Formulation Concept 1 (unmilled API tablet), fasting, mean
# [12] = human, plasma, oral, 10 mg, Treatment B: 1 × 10 mg Formulation Concept 1 (unmilled API tablet), fasting, mean
# [13] = human, plasma, oral, 10 mg, Treatment D: 1 × 10 mg Formulation Concept 1 (unmilled API tablet), after high-fat breakfast, mean
# [14] = human, plasma, po, 10 mg, Treatment A: 2 × 5 mg oral capsule, fasting, mean
structure (smiles),measurement,setting,value
"Cc1cc(C)cc(C2CCCN2Cc2ccc(Oc3ccc(C(N)=O)cc3F)cc2)c1 (stereo not drawn) [aticaprant, 3-fluoro-4-4-2-(3,5-dimethylphenyl)pyrrolidin-1-yl-methylphenoxybenzamide]",Geometric Mean Cmax,"[1]; Dose proportionality, completers, Treatment B (Reference): 1 × 10 mg Formulation Concept 1, fasting",32.8 ng/mL
same,"Ratio of Geometric Means, AUClast",[1]; [3],103.20%
same,"Ratio of Geometric Means, AUC∞",[1]; [3],103.93%
same,"Ratio of Geometric Means, Cmax",[1]; [3],102.12%
same,Geometric Mean Cmax,"[1]; Food effect, completers, Treatment B (Reference): 1 × 10 mg Formulation Concept 1, fasting",32.6 ng/mL
same,"Ratio of Geometric Means, AUClast",[1]; [4],144.01%
same,"Ratio of Geometric Means, AUC∞",[1]; [4],143.84%
same,"Ratio of Geometric Means, Cmax",[1]; [4],112.49%
same,Geometric Mean Cmax,"[1]; Relative BA, completers, Treatment B (Test): 1 × 10 mg Formulation Concept 1, fasting",32.8 ng/mL
same,"Ratio of Geometric Means, AUClast",[1]; [5],93.31%
same,"Ratio of Geometric Means, AUC∞",[1]; [5],94.14%
same,"Ratio of Geometric Means, Cmax",[1]; [5],108.64%
same,CL/F,[1]; [6],34.5 L/h
same,Λz,[1]; [6],0.030 h⁻¹
same,CL/F,[1]; [7],36.2 L/h
same,Cmax,[1]; [7],34.1 ng/mL
same,Λz,[1]; [7],0.029 h⁻¹
same,"AUClast, C Dose Normalized",[1]; [8],286 (79.7) h * ng/mL
same,"AUC∞, C Dose Normalized",[1]; [8],309 (86.4) h * ng/mL
same,"Cmax, C Dose Normalized",[1]; [8],33.9 (8.97) ng/mL
same,CL/F,[1]; [9],35.8 L/h
same,Λz,[1]; [9],0.035 h⁻¹
same,CL/F,[1]; [10],25.0 L/h
same,Λz,[1]; [10],0.031 h⁻¹
same,AUC(0-t),"[1]; human, plasma, oral, 5 mg, Dose proportionality, completers, Treatment C (Test): 1 × 5 mg Formulation Concept 1, fasting, 5 mg dose normalized to 10 mg, read-out: Geometric Mean AUClast",280 ng·h/mL
same,AUC(0-inf),"[1]; human, plasma, oral, 5 mg, Dose proportionality, completers, Treatment C (Test): 1 × 5 mg Formulation Concept 1, fasting, 5 mg dose normalized to 10 mg, read-out: Geometric Mean AUC∞",299 ng·h/mL
same,Vd/F,[1]; [11],1150 L
same,half-life,[1]; [11],24.7 h
same,AUC(0-t),"[1]; human, plasma, oral, 5 mg, Treatment C: 1 × 5 mg Formulation Concept 1 (unmilled API tablet), fasting, mean, read-out: AUClast",143 ng·h/mL
same,AUC(0-inf),"[1]; human, plasma, oral, 5 mg, Treatment C: 1 × 5 mg Formulation Concept 1 (unmilled API tablet), fasting, mean, read-out: AUC∞",155 ng·h/mL
same,Cmax,"[1]; human, plasma, oral, 5 mg, Treatment C: 1 × 5 mg Formulation Concept 1 (unmilled API tablet), fasting, mean, read-out: Cmax",17 ng/mL
same,Tmax,"[1]; human, plasma, oral, 5 mg, Treatment C: 1 × 5 mg Formulation Concept 1 (unmilled API tablet), fasting",1.5 h
same,AUC(0-t),"[1]; human, plasma, oral, 10 mg, Dose proportionality, completers, Treatment B (Reference): 1 × 10 mg Formulation Concept 1, fasting, read-out: Geometric Mean AUClast",271 ng·h/mL
same,AUC(0-inf),"[1]; human, plasma, oral, 10 mg, Dose proportionality, completers, Treatment B (Reference): 1 × 10 mg Formulation Concept 1, fasting, read-out: Geometric Mean AUC∞",287 ng·h/mL
same,AUC(0-t),"[1]; human, plasma, oral, 10 mg, Food effect, completers, Treatment B (Reference): 1 × 10 mg Formulation Concept 1, fasting, read-out: Geometric Mean AUClast",270 ng·h/mL
same,AUC(0-inf),"[1]; human, plasma, oral, 10 mg, Food effect, completers, Treatment B (Reference): 1 × 10 mg Formulation Concept 1, fasting, read-out: Geometric Mean AUC∞",287 ng·h/mL
same,AUC(0-t),"[1]; human, plasma, oral, 10 mg, Food effect, completers, Treatment D (Test): 1 × 10 mg Formulation Concept 1, after high-fat breakfast, read-out: Geometric Mean AUClast",388 ng·h/mL
same,AUC(0-inf),"[1]; human, plasma, oral, 10 mg, Food effect, completers, Treatment D (Test): 1 × 10 mg Formulation Concept 1, after high-fat breakfast, read-out: Geometric Mean AUC∞",413 ng·h/mL
same,Cmax,"[1]; human, plasma, oral, 10 mg, Food effect, completers, Treatment D (Test): 1 × 10 mg Formulation Concept 1, after high-fat breakfast, read-out: Geometric Mean Cmax",36.6 ng/mL
same,AUC(0-t),"[1]; human, plasma, oral, 10 mg, Relative BA, completers, Treatment B (Test): 1 × 10 mg Formulation Concept 1, fasting, read-out: Geometric Mean AUClast",271 ng·h/mL
same,AUC(0-inf),"[1]; human, plasma, oral, 10 mg, Relative BA, completers, Treatment B (Test): 1 × 10 mg Formulation Concept 1, fasting, read-out: Geometric Mean AUC∞",287 ng·h/mL
same,Vd/F,[1]; [12],1340 L
same,half-life,[1]; [12],26.6 h
same,AUC(0-t),"[1]; human, plasma, oral, 10 mg, Treatment B: 1 × 10 mg Formulation Concept 1 (unmilled API tablet), fasting, mean, read-out: AUClast",283 ng·h/mL
same,AUC(0-inf),"[1]; human, plasma, oral, 10 mg, Treatment B: 1 × 10 mg Formulation Concept 1 (unmilled API tablet), fasting, mean, read-out: AUC∞",301 ng·h/mL
same,Tmax,"[1]; human, plasma, oral, 10 mg, Treatment B: 1 × 10 mg Formulation Concept 1 (unmilled API tablet), fasting",1.5 h
same,Vd/F,[1]; [13],835 L
same,half-life,[1]; [13],24.5 h
same,AUC(0-t),"[1]; human, plasma, oral, 10 mg, Treatment D: 1 × 10 mg Formulation Concept 1 (unmilled API tablet), after high-fat breakfast, mean, read-out: AUClast",398 ng·h/mL
same,AUC(0-inf),"[1]; human, plasma, oral, 10 mg, Treatment D: 1 × 10 mg Formulation Concept 1 (unmilled API tablet), after high-fat breakfast, mean, read-out: AUC∞",425 ng·h/mL
same,Cmax,"[1]; human, plasma, oral, 10 mg, Treatment D: 1 × 10 mg Formulation Concept 1 (unmilled API tablet), after high-fat breakfast, mean, read-out: Cmax",37.7 ng/mL
same,Tmax,"[1]; human, plasma, oral, 10 mg, Treatment D: 1 × 10 mg Formulation Concept 1 (unmilled API tablet), after high-fat breakfast",2.75 h
same,AUC(0-t),"[1]; human, plasma, po, 10 mg, Relative BA, completers, Treatment A (Reference): 2 × 5 mg oral capsule, fasting, read-out: Geometric Mean AUClast",291 ng·h/mL
same,AUC(0-inf),"[1]; human, plasma, po, 10 mg, Relative BA, completers, Treatment A (Reference): 2 × 5 mg oral capsule, fasting, read-out: Geometric Mean AUC∞",305 ng·h/mL
same,Cmax,"[1]; human, plasma, po, 10 mg, Relative BA, completers, Treatment A (Reference): 2 × 5 mg oral capsule, fasting, read-out: Geometric Mean Cmax",30.2 ng/mL
same,Vd/F,[1]; [14],1250 L
same,half-life,[1]; [14],26.3 h
same,AUC(0-t),"[1]; human, plasma, po, 10 mg, Treatment A: 2 × 5 mg oral capsule, fasting, mean, read-out: AUClast",304 ng·h/mL
same,AUC(0-inf),"[1]; human, plasma, po, 10 mg, Treatment A: 2 × 5 mg oral capsule, fasting, mean, read-out: AUC∞",315 ng·h/mL
same,Cmax,"[1]; human, plasma, po, 10 mg, Treatment A: 2 × 5 mg oral capsule, fasting, mean, read-out: Cmax",31.2 ng/mL
same,Tmax,"[1]; human, plasma, po, 10 mg, Treatment A: 2 × 5 mg oral capsule, fasting",1.5 h
same,ASEX score,"[2]; Baseline, n = 85",21.26
same,ASEX score,"[2]; Endpoint, n = 85",19.79
same,ASEX score Relative % Change,[2]; n = 85,−6.91%
same,ASEX score Absolute Change,"[2]; n = 85, lower score indicates improvement",−1.47
same,ASEX total score mean change from treatment baseline (SD),"[2]; to week 6, lower score indicates improvement",−1.5 (4.02) points
